Laboratory results from US7251525B2, “Treatment of arrhythmias via inhibition of a multifunctional calcium/calmodulin-dependent protein kinase” (The Board of Trustees of the Leland Stanford Jr. University, priority 1997, dated 2007).
pIC50, pKi: −log10 of the molar value.

Columns and labels:
[1] = tested on: isolated rabbit ventricular myocytes; test: EAD induction in isolated rabbit ventricular myocytes in current clamp with low extracellular potassium; type: cell-based; conditions: cells dialyzed with peptide; for EADs induced (cells with EADs/cells): 1.0 mM extracellular potassium
Method: Action potentials were induced in isolated rabbit ventricular myocytes studied in current clamp with low (1.0 mM) extracellular potassium to favor EAD induction.
Action potential recording was performed in the following bath solution (mmol/L): NaCl 140.0, Glucose 10.0, HEPES 5.0, KCl 5.4, CaCl2 2.5, MgCl2 1.0; pH was adjusted to 7.4 with 10 N NaOH. The intracellular pipette solution for action potential recording contained (mmol/L): K aspartate 120.0, HEPES 10.0, EGTA 10.0, Na2ATP 5.0, MgCl2 4.0, CaCl2 3.0; pH was adjusted to 7.2 with 1N KOH. Unless otherwise noted, all chemicals were from Sigma.
Cells were stimulated at 0.1 Hz in whole cell configuration in current clamp mode with 0.1 to 1.0 nA pulses of depolarizing current (1.25×threshold) for 2-3 ms at room temperature (20°-23° C.). Action potentials were low pass filtered at 2 KHz and sampled at 2.5 KHz with a 12-bit analog to digital converter (Digidata 1200 B, Axon Instruments). A long action potential waveform was digitized and stored for application as a voltage command using pClamp 6.03.

isolated heart cells = test: Pacing-induced inward current (DAD-linked) in isolated heart cells, action potential voltage clamp; type: cell-based, rabbit; conditions: 0.5 Hz; for cells that developed inward currents: peptide 20 μmole/l dialyzed, 32° C.
Method: FIG. 7. CaM kinase inhibition suppresses pacing induced inward current. Isolated heart cells were paced (0.5 Hz, T=32° C.) using a prolonged action potential voltage clamp command wave form. (A) A prolonged action potential was digitized and used as a voltage clamp command waveform for current tracings below. Command membrane potential is on the ordinate and time (for panels A-C) is on the abscissa (B) Inward currents developed after completion of the command wave form in 5/6 cells dialyzed with a control peptide (SEQ ID NO: 2, 20 μmole/l) devoid of CaM kinase inhibitory activity. Cell membrane currents are referenced on the ordinate for both panels B and C.
Isolated heart cells (Experimental Methods, Example 6) were stimulated (0.5 Hz) in voltage clamp using a prolonged action potential wave form (FIG. 7A). Rapid pacing favors intracellular calcium overload. Inward currents that develop in response to rapid pacing are a marker for intracellular calcium overload and they are the basis for arrhythmogenic delayed afterdepolarizations (DADs).
Isolated cells were studied with the action potential command wave form using voltage clamp methodology (Experimental Methods, Example 6). Cells were stimulated at 0.5 Hz and 32° C. (heated stage from Warner Instruments) for up to 100 beats. Recording solutions were identical to those for action potential recording except that the calcium buffer EGTA was omitted from the intracellular solution to favor intracellular calcium overload. The presence or absence of the post-repolarization inward current was noted.

[2] = tested on: L-type calcium window current; test: L-type calcium window current with an EAD-containing action potential voltage clamp wave form; type: cell-based, rabbit; conditions: dialysis with peptide; data not shown
CaM kinase [3] = conditions: cited from earlier work
CaM kinase [4] = biological target: T1, CaM kinase (Oryctolagus cuniculus, UniProt O77708); test: In vitro CaM kinase activity in left ventricular tissue homogenate; type: biochemical, rabbit; conditions: LV tissue homogenate; 0-100 μmol/l
T1 sequence (O77708 2-533): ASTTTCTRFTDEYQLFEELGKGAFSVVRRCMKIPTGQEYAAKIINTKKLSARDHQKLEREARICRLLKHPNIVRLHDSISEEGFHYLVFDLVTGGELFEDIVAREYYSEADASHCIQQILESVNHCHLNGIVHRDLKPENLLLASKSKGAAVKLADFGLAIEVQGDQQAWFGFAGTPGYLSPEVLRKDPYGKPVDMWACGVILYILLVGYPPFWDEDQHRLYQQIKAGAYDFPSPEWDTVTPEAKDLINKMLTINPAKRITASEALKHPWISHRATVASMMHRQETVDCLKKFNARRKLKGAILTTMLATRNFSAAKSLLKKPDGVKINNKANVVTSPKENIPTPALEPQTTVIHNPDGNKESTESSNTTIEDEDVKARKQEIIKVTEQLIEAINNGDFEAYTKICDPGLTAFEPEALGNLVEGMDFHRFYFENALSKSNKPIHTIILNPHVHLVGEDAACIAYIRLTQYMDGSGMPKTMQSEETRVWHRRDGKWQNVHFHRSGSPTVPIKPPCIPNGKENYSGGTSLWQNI
Method: FIG. 5. Effects of KN-93 and KN-92 on CaM kinase activity in vitro. CaM kinase activity in left ventricular tissue homogenate was assayed as described in Example 5, Experimental Methods. […] The solid line represents a fit to the KN-93 data using the Hill equation.
Left ventricular homogenate was prepared as follows: after removal of the heart, it was placed in nominally Ca^2+ free ice-cold HEPES-buffered Tyrode's solution. One to two grams of the left ventricular free wall was cut away, coarsely minced, and suspended in 5-10 ml of cold homogenization buffer (mmol/l: 20 PIPES, 1 EDTA, 1 EGTA, 2 DTT, 10 sodium pyrophosphate, and 50-100 μg/ml leupeptin) at pH 7.0. Tissue suspension was homogenized at 4° C. using 3-10 sec bursts of a Polytron with 30 sec pauses inbetween bursts. The homogenate was then centrifuged at ˜10,000×g for 20 min at 4° C. using a JA-20 rotor. The supemate was removed and used directly in the assay. Protein concentration was measured by the method of Bradford, using BSA as the standard.
(§1) Assay of CaM kinase activity was performed essentially as described by Waldmann et al. with a few modifications. […] Calcium/calmodulin-dependent phosphorylation of the autocamtide 3 substrate was then quantitated as described. Calcium/calmodulin-independent CaM kinase activity was quantitated as described above, but Ca^2+ was omitted from the assay solution. […]

isolated rabbit hearts = test: Clofilium-induced early afterdepolarizations (EADs) in isolated perfused rabbit hearts; conditions: for left ventricular developed pressure (LVDP) following clofilium: clofilium 7.5 μmole/l
Excerpt: FIG. 1. […] Data tracings show (from top to bottom) monophasic action potentials (MAP) and left ventricular (LV) pressure. The horizontal lines to the left of the LV pressure tracings (top to bottom) indicate 100 mm Hg and 0 mm Hg levels and 850 ms for panels A and B. All experiments with isolated hearts consisted of 3 periods. A fourth period (experimental period 4) was only added in hearts with EADs. Experimental periods are labeled 1-4 (top of page for both panels A and B). Experimental period 1 measurements represent control and follow >10 min of stabilization. […] Period 3 measurements follow addition of clofilium (7.5 μmole/l) and are taken at EAD initiation or from the longest action potential duration recorded over 30 min. Multiple EADs are seen as 2 oscillations during repolarization on the MAP tracings in experimental period 3. Secondary elevations in LV pressure coinciding with EADs are also seen in the LV pressure tracing in experimental period 3. Experimental period 4 measurements follow EAD termination by addition of nifedipine (10 μmole/l) (shown above) or Cd^2+ (200-500 μmole/l) (data not shown). The horizontal bars indicate the experimental conditions for both panels A and B. (B) Experimental design for isolated rabbit hearts treated with CaM kinase inhibitor KN-93. Arrangement of data tracings is the same as in FIG. 1A (above). Experimental periods are also the same as in FIG. 1A (above) except the active CaM kinase inhibitor KN-93 (0.5 μmole/l) was added 10 min prior to period 2 measurements. […] (C) Continuous record of EAD termination by nifedipine (10 μM) in a heart paced at a cycle length of 1500 ms. Data tracings show MAP with single EADs (top) and LV pressure (bottom). The horizontal lines to the left of the LV pressure tracings indicate 50 mm Hg and 0 mm Hg pressure levels (top to bottom). EAD termination occurs prior to the first discernible decrease (i.e. >10% below baseline) in LV pressure. The vertical arrow marks the first beat of EAD termination.
New Zealand White rabbits of either gender (2.7-3.2 kg) were treated with a heparin bolus (150 U/kg IV) and killed by pentobarbital (50 mg/kg IV) overdose. Hearts were rapidly excised and placed in ice-cold Tyrode's solution for dissection of extracardiac tissue. (Tyrode's solution was composed of (mmol/l) NaCl (130.0), NaHCO3 (20.0), glucose (5.6), KCl (3.0), CaCl2 (2.0), NaH2PO4 (1.8), MgCl24H2O(0.7).) The aorta was cannulated, and perfused retrograde with Tyrode's solution. The perfusate (200 ml) was recirculated through a warming bath and filling pressure was adjusted to 20 cm of H2O. Recirculation time was ˜1 min, based on the time to decrease in left ventricular (LV) pressure following addition of ICa blockers to the recirculating perfusate. Temperature was monitored using a thermistor probe positioned in the right ventricle (RV) and maintained at 33±1° C. by a closed loop feed back system. The perfusate was vigorously bubbled with 95% O2, 5% CO2 and pH was monitored throughout the experiments and adjusted to 7.4 with LN NaOH or HCl, as appropriate. Both atria were removed and drains were placed in the RV and LV apices. An electrocardiogram (ecg) lead was sutured to the LV apex and the proximal pulmonary artery. Epicardial pacing wires were inserted into the RV free wall. Bradycardia was produced by crushing the AV node with a forceps. Epicardial pacing maintained a minimum cycle length of 1500 ms (heart rate of 40 beats/min). Pacing output was adjusted to twice diastolic threshold. In most experiments LV pressure was continuously monitored with a solid state transducer (Camino Laboratories) placed in a saline filled latex balloon. The balloon was secured with a purse string suture around the left atrial remnant and pressure was adjusted to maximize the LV developed pressure (LVDP) keeping the LV end diastolic pressure <10 mmHg. […]

protein kinase A (PKA) = conditions: cited from earlier work
protein kinase C (PKC) = conditions: cited from earlier work
[5] = biological target: T2, L-type Ca2+ current (ICa) (Oryctolagus cuniculus, UniProt P15381); test: Whole cell voltage clamp of L-type Ca2+ current in single ventricular myocytes; type: cell-based, rabbit; conditions: for steady state inhibition of peak ICa: 0.5 μmol/l external application, cells dialyzed with BAPTA
T2 construct: endogenous in cells; host or cells: freshly isolated New Zealand White rabbit ventricular myocytes
T2 sequence (P15381 whole entry, other chains not shown): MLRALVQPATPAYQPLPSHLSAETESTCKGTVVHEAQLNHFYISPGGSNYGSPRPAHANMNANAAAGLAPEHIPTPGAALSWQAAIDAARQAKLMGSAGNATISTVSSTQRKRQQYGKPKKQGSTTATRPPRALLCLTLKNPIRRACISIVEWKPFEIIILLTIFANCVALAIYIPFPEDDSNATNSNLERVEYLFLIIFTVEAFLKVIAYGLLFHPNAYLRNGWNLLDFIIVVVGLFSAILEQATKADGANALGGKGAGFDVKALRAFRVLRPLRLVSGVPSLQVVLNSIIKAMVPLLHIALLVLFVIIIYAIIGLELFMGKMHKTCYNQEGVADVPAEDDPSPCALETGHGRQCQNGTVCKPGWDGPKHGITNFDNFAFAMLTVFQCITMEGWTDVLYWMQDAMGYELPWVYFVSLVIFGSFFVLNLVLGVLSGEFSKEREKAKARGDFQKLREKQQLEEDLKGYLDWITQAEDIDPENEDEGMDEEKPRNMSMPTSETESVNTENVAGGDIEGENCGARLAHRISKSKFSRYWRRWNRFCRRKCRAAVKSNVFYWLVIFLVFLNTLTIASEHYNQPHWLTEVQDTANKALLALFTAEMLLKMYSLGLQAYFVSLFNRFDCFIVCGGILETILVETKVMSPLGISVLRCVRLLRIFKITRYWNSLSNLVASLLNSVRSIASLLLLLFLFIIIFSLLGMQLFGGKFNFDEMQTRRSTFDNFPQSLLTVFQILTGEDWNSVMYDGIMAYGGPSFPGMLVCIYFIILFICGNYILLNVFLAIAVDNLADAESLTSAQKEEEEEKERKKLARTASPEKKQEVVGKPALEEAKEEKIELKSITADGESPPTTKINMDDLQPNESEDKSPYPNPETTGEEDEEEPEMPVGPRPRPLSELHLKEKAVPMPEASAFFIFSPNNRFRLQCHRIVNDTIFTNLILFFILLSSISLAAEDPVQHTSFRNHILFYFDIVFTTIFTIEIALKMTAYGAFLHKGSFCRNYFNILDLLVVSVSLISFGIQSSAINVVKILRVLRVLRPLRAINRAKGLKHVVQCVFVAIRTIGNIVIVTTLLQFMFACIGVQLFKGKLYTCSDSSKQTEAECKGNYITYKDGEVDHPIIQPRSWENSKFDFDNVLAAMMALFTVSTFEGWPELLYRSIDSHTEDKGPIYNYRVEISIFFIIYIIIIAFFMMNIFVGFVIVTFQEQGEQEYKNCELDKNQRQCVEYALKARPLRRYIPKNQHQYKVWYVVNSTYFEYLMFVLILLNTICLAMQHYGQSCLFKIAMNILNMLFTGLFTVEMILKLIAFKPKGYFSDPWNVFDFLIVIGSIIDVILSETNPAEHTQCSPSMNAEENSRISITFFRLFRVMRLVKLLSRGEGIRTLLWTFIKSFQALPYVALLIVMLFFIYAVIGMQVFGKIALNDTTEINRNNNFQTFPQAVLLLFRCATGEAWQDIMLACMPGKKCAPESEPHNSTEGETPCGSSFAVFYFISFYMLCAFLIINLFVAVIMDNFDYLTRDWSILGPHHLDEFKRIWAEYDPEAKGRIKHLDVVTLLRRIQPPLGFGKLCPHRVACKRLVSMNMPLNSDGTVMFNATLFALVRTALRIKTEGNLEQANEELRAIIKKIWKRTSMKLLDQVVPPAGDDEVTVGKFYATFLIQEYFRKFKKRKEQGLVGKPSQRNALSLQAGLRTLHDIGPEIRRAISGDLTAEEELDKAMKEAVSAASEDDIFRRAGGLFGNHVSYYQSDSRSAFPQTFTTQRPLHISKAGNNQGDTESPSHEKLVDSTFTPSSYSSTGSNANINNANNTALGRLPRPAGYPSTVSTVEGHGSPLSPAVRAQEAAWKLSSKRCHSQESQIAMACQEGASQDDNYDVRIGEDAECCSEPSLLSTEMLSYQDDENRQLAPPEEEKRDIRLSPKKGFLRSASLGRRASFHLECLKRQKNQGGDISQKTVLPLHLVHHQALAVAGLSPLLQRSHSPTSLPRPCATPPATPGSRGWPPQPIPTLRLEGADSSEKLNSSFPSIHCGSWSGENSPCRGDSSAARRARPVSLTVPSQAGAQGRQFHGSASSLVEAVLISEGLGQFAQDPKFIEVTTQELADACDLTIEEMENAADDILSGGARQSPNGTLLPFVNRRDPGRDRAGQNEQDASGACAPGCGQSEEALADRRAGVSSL
T2 sequence (P13806 27-960 partner limits assumed, other chains not shown): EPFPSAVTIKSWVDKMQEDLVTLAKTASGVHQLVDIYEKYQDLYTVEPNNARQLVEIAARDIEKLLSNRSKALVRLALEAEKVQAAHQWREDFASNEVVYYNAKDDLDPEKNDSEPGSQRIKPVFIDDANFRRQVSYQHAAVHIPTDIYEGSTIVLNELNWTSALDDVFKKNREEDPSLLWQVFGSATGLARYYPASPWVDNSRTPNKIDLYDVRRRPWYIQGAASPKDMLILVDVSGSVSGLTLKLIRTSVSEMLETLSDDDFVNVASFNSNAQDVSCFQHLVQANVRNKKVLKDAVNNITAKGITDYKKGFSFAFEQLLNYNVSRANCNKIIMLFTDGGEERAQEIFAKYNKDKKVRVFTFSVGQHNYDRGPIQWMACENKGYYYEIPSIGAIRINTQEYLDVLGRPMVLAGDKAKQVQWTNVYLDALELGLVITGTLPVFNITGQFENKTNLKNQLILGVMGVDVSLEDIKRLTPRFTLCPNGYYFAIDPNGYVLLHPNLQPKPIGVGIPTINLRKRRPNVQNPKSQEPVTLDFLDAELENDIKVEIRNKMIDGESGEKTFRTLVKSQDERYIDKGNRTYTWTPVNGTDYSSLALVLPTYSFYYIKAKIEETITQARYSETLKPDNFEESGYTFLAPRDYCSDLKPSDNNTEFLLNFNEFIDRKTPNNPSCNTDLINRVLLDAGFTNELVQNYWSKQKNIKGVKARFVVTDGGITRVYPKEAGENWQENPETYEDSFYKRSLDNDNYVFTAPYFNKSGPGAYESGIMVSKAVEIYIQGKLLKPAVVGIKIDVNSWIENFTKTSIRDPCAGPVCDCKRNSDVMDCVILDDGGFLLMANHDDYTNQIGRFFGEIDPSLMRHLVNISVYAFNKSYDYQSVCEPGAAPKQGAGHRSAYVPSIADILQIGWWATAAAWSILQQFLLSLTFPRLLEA
T2 sequence (P13806 961-1106 partner limits assumed, other chains not shown): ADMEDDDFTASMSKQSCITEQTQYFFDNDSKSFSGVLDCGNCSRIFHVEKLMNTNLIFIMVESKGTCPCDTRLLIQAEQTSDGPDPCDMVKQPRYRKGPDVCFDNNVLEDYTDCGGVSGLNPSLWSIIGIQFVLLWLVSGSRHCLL

CaM kinase [6] = biological target: T1, CaM kinase; test: Ca2+-independent CaM kinase activity in LV tissue from isolated rabbit hearts; conditions: clofilium 7.5 μmole/l; KN-93 pretreatment 0.5 μmol/l
Method: FIG. 4. Percent calcium-independent CaM kinase activity in isolated rabbit hearts. Maximal (i.e. Ca^2+/calmodulin-dependent) and Ca^2+-independent CaM kinase activities were assayed from left ventricular (LV) tissue homogenates as described in Example 5, Experimental Methods. All hearts were initially isolated under control conditions. A stabilization period of ≧10 min was used for each isolated heart to ensure the absence of EADs, as indicated by monophasic action potentials (MAPs) recorded by a catheter positioned over the LV epicardium. […]
Left ventricular homogenate was prepared as follows: after removal of the heart, it was placed in nominally Ca^2+ free ice-cold HEPES-buffered Tyrode's solution. […] Protein concentration was measured by the method of Bradford, using BSA as the standard.
as §1

[7] = pretreatment 0.5 μmol/l, clofilium 7.5 μM

Molecule | kind of EADs seen [1] | EADs induced (cells with EADs/cells) [1] | cells that developed inward currents (isolated heart cells) | effect on L-type calcium window current [2] | EADs in response to clofilium (hearts with EADs/hearts) (isolated rabbit hearts; [7]) | multiple EADs (hearts with multiple EADs/hearts) (isolated rabbit hearts; [7]) | left ventricular developed pressure (LVDP) following clofilium (isolated rabbit hearts; pretreatment 0.5 μmol/l) | effects on protein kinase A (PKA) (protein kinase A (PKA)) | effects on protein kinase C (PKC) (protein kinase C (PKC)) | apparent voltage dependence of ICa activation [5] | steady state inhibition of peak ICa [5] [%] | Ca2+-independent CaM kinase activity compared to control (CaM kinase [6]) | further results
KKALHAQERVDCL [SEQ ID NO: 2] | complex and repetitive | 11/15 | 5/6 | no significant effect | – | – | – | – | – | – | – | – | –
Ryanodine | – | – | – | – | – | – | – | – | – | – | – | – | cells in which development of pacing induced inward currents was prevented (isolated heart cells; 10 μmole/l): 2/2
COc1ccc(S(=O)(=O)Nc2ccccc2CN(C)CC=Cc2ccc(Cl)cc2)cc1 [KN-92, 2-N-(4-methoxybenzenesulfonyl)-amino-N-(4-chlorocinnamyl)N-methylbenzylamine] | – | – | – | – | 10/11 | 7/11 | increased significantly | neither KN-93 nor KN-92 have appreciable effects | neither KN-93 nor KN-92 have appreciable effects | Neither KN-92 or KN-93 shifted | 36.2±1.9 | – | CaM kinase inhibitory activity (CaM kinase [3]; congener used as experimental control): without CaM kinase inhibitory activity; inhibition of CaM kinase activity (CaM kinase [4]): did not cause appreciable inhibition
CCCCCCC[N+](CC)(CC)CCCCc1ccc(Cl)cc1 [clofilium] | – | – | – | – | – | – | – | – | – | – | – | increased significantly | EAD induction by clofilium in hearts without any pretreatment (isolated rabbit hearts; clofilium 7.5 μM, no pretreatment): 8/8
COc1ccc(S(=O)(=O)N(CCO)c2ccccc2CN(C)CC=Cc2ccc(Cl)cc2)cc1 [KN-93, 2-[N-(2-hydroxyethyl)-N-(4-methoxy-benzenesulfonyl)]-amino-N-(4-chlorocinnamyl)-N-methylbenzylamine] | – | – | – | – | 4/10 | 1/10 | completely prevented the increase in LVDP | neither KN-93 nor KN-92 have appreciable effects | neither KN-93 nor KN-92 have appreciable effects | Neither KN-92 or KN-93 shifted | 36.2±4.3 | No significant increase | pKi (CaM kinase [3]; read-out: reported Ki, competitive inhibition of calmodulin binding to CaM kinase): 6.43; MAP duration prolongation by clofilium (isolated rabbit hearts; pretreatment 0.5 μmol/l): without reducing MAP duration prolongation; peak steady state ICa inhibition relative to KN-92 ([5]; 1.0 μmol/l): more effective ICa inhibitor
KKALHRQEAVDCL [SEQ ID NO: 1] | only single EADs | 4/15 | 0/5 | an increase in the current was prevented | – | – | – | – | – | – | – | – | pIC50 (protein kinase A (PKA)): ≤ 3.30; pIC50 (protein kinase C (PKC)): ≤ 3.30
